Data from patent publication US5194437A, “1,4-disubstituted piperazines” (Adir et Compagnie, priority 1990, dated 1993).

Assays:
5-HT1A receptors [1] = molecular target: T1, 5-HT1A receptors (Rattus norvegicus, UniProt P19327); test: Spontaneous tail flick test (STF), agonist and antagonist activity; assay type: in vivo, male Wistar rats; design: from tissue; host or cells: whole animal, male Wistar rat (in vivo); conditions: for Spontaneous tail flicks M.E.D.: agonist: induction of STF, s.c., minimum effective dose; for ED50: rat, sc, 1 h, antagonist: inhibition of STF induced by 8-OH-DPAT 0.63 mg/kg s.c., compound s.c. 60 min before test, read-out: Spontaneous tail flicks ID50 (95% C.L.)
T1 sequence (P19327 1-422): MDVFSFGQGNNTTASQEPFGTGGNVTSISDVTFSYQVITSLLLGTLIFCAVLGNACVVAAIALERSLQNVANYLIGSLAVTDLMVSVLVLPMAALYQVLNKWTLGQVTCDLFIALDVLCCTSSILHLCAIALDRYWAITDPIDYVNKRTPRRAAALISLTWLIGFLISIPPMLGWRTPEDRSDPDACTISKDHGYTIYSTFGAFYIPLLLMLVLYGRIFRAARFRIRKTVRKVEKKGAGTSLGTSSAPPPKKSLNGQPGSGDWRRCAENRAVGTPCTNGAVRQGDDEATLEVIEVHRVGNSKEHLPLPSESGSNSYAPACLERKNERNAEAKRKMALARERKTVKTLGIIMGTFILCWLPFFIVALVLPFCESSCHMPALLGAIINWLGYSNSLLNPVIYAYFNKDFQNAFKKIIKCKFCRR
Protocol: (§1) The tests were carried out on male Wistar rats weighing from 200 to 220 g which had free access to food and drinking water, in standard cages.
(§2) The animals are housed individually for the hypothermia, corticosterone secretion and flat body posture tests, and in groups of three for the tail flick test.
(§3) The laboratory temperature is kept at 21°±1° C., with 60 ±5% humidity. The rats are subjected to a light/dark cycle of 12 hours/12 hours (the light cycle commencing at 7.30 a.m.).
(§4) a/ General procedure for tests of agonist and antagonist activities on 5-HT1A receptors.
(§5) The test compounds were administered subcutaneously (s.c.) 60 minutes before the start of the test, that is to say 30 minutes before the vehicle (agonist responses) or 8-OH-DPAT (antagonist responses).
(§6) In all the tests, the solvent is used in parallel as the control. The animals were allowed to rest in their cages during the time between the injections and evaluation.
(§7) For the agonist studies, the solvent was administered at a dose of 1 ml/kg s.c. 30 minutes before the start of the test. For the antagonist studies, doses of 8-OH-DPAT inducing sub-maximal responses were chosen, i.e. doses of 0.63, 0.16, 0.16 and 0.16 mg/kg s.c. for the tail flick test, the flat body posture test, the corticosterone secretion test and the hypothermia test, respectively.
Tail flicks were determined in animals restrained in horizontal, opaque plastics cylinders, the animals' tails hanging freely over the edge of the laboratory bench. After a 5-minute adaptation period, the number of movements made in 5 minutes is recorded. One STF is defined as the raising of the tail to a level higher than the level of the body axis [Millan M. J. et al., J. Pharmacol. Exp. Ther., 256, 973-982 (1990)].
(§8) In general, after variance analysis, the results are subjected to Dunnett's test. Results are regarded as significant if p<0.05.
(§9) The doses of the test compounds are all expressed in terms of the base. Unless otherwise mentioned, all the compounds were dissolved in sterile water (to which a few drops of lactic acid are added, if necessary) and administered at a volume of 1 ml/kg s.c..

5-HT1A receptors [2] = molecular target: T1, 5-HT1A receptors; test: Corticosterone secretion (CS), plasma, agonist and antagonist activity; assay type: in vivo, male Wistar rats; design: from tissue; host or cells: whole animal, male Wistar rat (in vivo); conditions: for Corticosterone secretion M.E.D.: agonist: induction of CS, s.c., minimum effective dose; for ED50: rat, sc, 1 h, antagonist: inhibition of CS induced by 8-OH-DPAT 0.16 mg/kg s.c., compound s.c. 60 min before test, read-out: Corticosterone secretion ID50 (95% C.L.)
Protocol: as §1, §2, §3, §4, §5, §6, §7
(§10) The same animals were employed for the evaluation of the effect of the test compounds on the FBP and for the determination of the plasma levels of CS. All the tests were carried out in the morning between 10.30 and 12.30, i.e. when the cicardian levels of CS are at their lowest.
(§11) The presence of FBP is defined by a characteristic posture of the animal. The animal is then in a position of ventral decubitus with the hind limbs clearly in extension. 5 minutes after observation of FBP, the animals are decapitated and the trunk blood is collected in chilled tubes containing 50 μl of a 10% EDTA solution. After centrifugation at 4000 rpm, the plasma is removed and stored at -30° C. until assay.
CS was determined using a radio-competitive assay for a CS-binding protein in plasma: transcortin. The latter is obtained from monkey serum. Separation of the CS-transcortin complexes from free CS was effected by means of a solution of dextran and active charcoal. The detection limit was 50 pg/tube. Intra- and inter-assay variations were 5 and 15%, respectively [cf. Rivet J. M. et al., Eur. J. Pharmacol., 183, 634-635 (1990)].
Since the base levels of CS in plasma are never zero, the following formula was used to calculate the percentage inhibition of plasmatic CS induced by 8-OH-DPAT: [formula]
as §8, §9

5-HT1A receptors [3] = molecular target: T1, 5-HT1A receptors; test: In vitro binding test, 5-HT1A receptors, [3]H-8-OH-DPAT, rat hippocampus membranes; design: Hippocampus from the brains of decapitated rats; from tissue; host or cells: rat hippocampus membranes (male Wistar); species or system rat (male Wistar); conditions: for Affinity (pKi): hot ligand [3]H-8-OH-DPAT 0.4 nM, rat hippocampus membranes, 25° C., 30 minutes
Protocol: Hippocampus from the brains of decapitated rats was immediately frozen on dry ice and then stored at -80° C. until preparation of membranes. The tissue was homogenised at 4° C. in the appropriate buffer using a Polytron (Brinkman Instruments - Lucerne - Switzerland) and centrifuged at 20,000 rpm.
Incubation was carried out at 25° C. for 30 minutes. Non-specific binding was defined by 10 μM of 5-HT. The tests were terminated by rapid filtration by means of a Brandel harvester over glass-fibre filters pretreated with 0.1% polyethyleneimine.
The inhibitory concentration 50 values (IC50) were determined according to method 8 of Tallarida R. J. and Murray R. B., Manual of pharmacological calculations with computer programs, Springer Verlag, N.Y. (1987).
The pKi was calculated according to the formula [formula] where [L] is the concentration of the hot ligand ([3]H-8-OH-DPAT, 0.4 nM) and Kd is the apparent dissociation constant determined from saturation experiments.
The test substances were dissolved in the incubation buffer.

5-HT1A receptors [4] = molecular target: T1, 5-HT1A receptors; test: Flat body posture (FBP), agonist response and antagonism of 8-OH-DPAT; assay type: in vivo, male Wistar rats; design: from tissue; host or cells: whole animal, male Wistar rat (in vivo); conditions: sc
Protocol: as §1, §2, §3, §4, §5, §6, §7, §10
25 minutes after the treatment (i.e. 5 minutes before decapitation), the animals are observed in their cages and the presence or absence of FBP is noted.
as §11, §8
For the dose-response for induction and inhibition of FBP, the effective doses 50 (ED50) (doses at which 50% of the animals show a response) were calculated by the method of Litchfield and Wilcoxon.
as §9

5-HT1A receptors [5] = molecular target: T1, 5-HT1A receptors; test: Body temperature (hypothermia), agonist and antagonist activity; assay type: in vivo, male Wistar rats; design: from tissue; host or cells: whole animal, male Wistar rat (in vivo); conditions: for Hypothermia M.E.D.: agonist: induction of hypothermia, s.c., minimum effective dose; for ED50: rat, sc, 1 h, antagonist: inhibition of hypothermia induced by 8-OH-DPAT 0.16 mg/kg s.c., compound s.c. 60 min before test, read-out: Hypothermia ID50 (95% C.L.)
Protocol: as §1, §2, §3, §4, §5, §6, §7
The rats are immobilised and a lubricated digital thermometer (Thermistoprobe from Testotherm, Basle, Switzerland) is inserted into the rectum to a depth of 5 cm. 30 seconds after insertion, the temperature is read off a digital scale. The percentage inhibition is calculated with the aid of the formula mentioned above.
as §8, §9

5-HT1A receptors [6] = molecular target: T1, 5-HT1A receptors; test: Overall agonist/antagonist behaviour at 5-HT1A receptors (in vivo tests); design: from tissue; host or cells: whole animal, male Wistar rat (in vivo); species or system male Wistar rats; conditions: conclusion from Tables 1 and 2
Protocol: as §4, §5, §6, §7

[7] = 1 h, read-out: Flat body posture ED50 (95% C.L.), antagonism of 8-OH-DPAT, inhibition of FBP, 8-OH-DPAT 0.16 mg/kg s.c., compound s.c. 60 min before test
[8] = induction of FBP, s.c., dose at which 50% of the animals show a response, read-out: Flat body posture ED50 (95% C.L.), agonist response

Compound | Spontaneous tail flicks M.E.D. (5-HT1A receptors [1]) | ED50 (5-HT1A receptors [1]) | Corticosterone secretion M.E.D. (5-HT1A receptors [2]) | ED50 (5-HT1A receptors [2]) | Affinity (pKi) (5-HT1A receptors [3]) | ED50 (5-HT1A receptors [4]; [7]) | ED50 (5-HT1A receptors [4]; [8]) | Hypothermia M.E.D. (5-HT1A receptors [5]) | ED50 (5-HT1A receptors [5]) | Behaviour towards 5-HT1A receptors (5-HT1A receptors [6]) | Ki (5-HT1A receptors [3])
c1ccc2c(c1)CC(N1CCN(c3cccc4c3OCCO4)CC1)C2 [Example 7, 4-(benzodioxan-5-yl)-1-(indan-2-yl)-piperazine] | > 10.0 mg/kg | 0.74 mg/kg | > 10.0 mg/kg | 2.5 mg/kg | 8.75 | 0.52 mg/kg | > 10 mg/kg | 20.0 mg/kg | 1.6 mg/kg |  | 
O=C1CC2(CCCC2)CC(=O)N1CCCCN1CCN(c2ncccn2)CC1 [buspirone, reference compound] | > 10.0 mg/kg | 3.71 mg/kg | > 2.5 mg/kg | > 10 mg/kg |  | > 10 mg/kg | 7.4 mg/kg | 2.5 mg/kg |  | agonist behaviour | 
c1ccc2c(c1)CC(CN1CCN(c3cccc4c3OCCO4)CC1)C2 [Example 14, 4-(benzodioxan-5-yl)-1-[(indan-2-yl)-methyl]-piperazine] |  | 0.19 mg/kg | > 2.5 mg/kg | > 2.5 mg/kg |  | ≥ 2.5 mg/kg | > 2.5 mg/kg | > 10.0 mg/kg | < 2.5 mg/kg |  | 3.39 nM
c1ccc2c(c1)CCC2CN1CCN(c2cccc3c2OCCO3)CC1 (racemic) [Example 15, (R,S)-4-(benzodioxan-5-yl)-1-[(indan-1-yl)-methyl]-piperazine] |  | 0.085 mg/kg | > 2.5 mg/kg | > 2.5 mg/kg |  | ≥ 2.5 mg/kg | > 2.5 mg/kg | 10.0 mg/kg | 1.53 mg/kg |  | 2 nM
c1ccc2c(c1)CC2CN1CCN(c2cccc3c2OCCO3)CC1 (racemic) [Example 1, (R,S)-4-(benzodioxan-5-yl)-1-[(benzocyclobutan-1-yl)methyl]-piperazine] | > 10.0 mg/kg | 0.09 mg/kg | > 2.5 mg/kg | < 2.5 mg/kg |  | 0.71 mg/kg | > 10 mg/kg | 10.0 mg/kg | 0.5 mg/kg |  | 1.82 nM
c1ccc2c(c1)CC(N1CCN(c3cccc4c3OCCCO4)CC1)C2 [Example 9, 4-[benzo(1,5)dioxepin-6-yl]-1-(indan-2-yl)-piperazine] | > 10.0 mg/kg | 1.59 mg/kg | > 2.5 mg/kg | > 2.5 mg/kg | 8.42 | < 2.5 mg/kg | > 2.5 mg/kg | 5.0 mg/kg | 4.36 mg/kg |  | 
